Experimental data taken from ChEMBL document CHEMBL4828735, “Discovery of N-((3S,4S)-4-(3,4-Difluorophenyl)piperidin-3-yl)-2-fluoro-4-(1-methyl-1H-pyrazol-5-yl)benzamide (Hu7691), a Potent and Selective Akt Inhibitor That Enables Decrease of Cutaneous Toxicity” (J Med Chem, 2021).

Assays:
KHOS/NP = assay: Antiproliferative activity against human KHOS cells assessed as inhibition of cell growth incubated for 72 hrs by SRB assay; type: functional, cell-based
[1] = target: RAC-alpha serine/threonine-protein kinase (Homo sapiens, UniProt P31749); assay: Inhibition of N-terminal GST-tagged human AKT1 (104 to 408 residues) expressed in baculovirus infected Sf21 cells incubated for 1 hr in presence of ATP by mobility shift assay
786-0 = assay: Antiproliferative activity against human 786-0 cells assessed as inhibition of cell growth incubated for 72 hrs by SRB assay; type: functional, cell-based; settings: 786-0, 72 h
HGC-27 = assay: Antiproliferative activity against human HGC-27 cells assessed as inhibition of cell growth incubated for 72 hrs by SRB assay; type: functional, cell-based; settings: HGC-27, 72 h
hERG (KCNH2) = hERG (KCNH2) (Homo sapiens, UniProt Q12809); assay: Inhibition of human ERG expressed in HEK293 cells at 3 uM by whole cell patch clamp method relative to control; type: cell-based; settings: HEK293 cells expressing hERG
Chain of hERG (KCNH2) (Q12809 whole entry): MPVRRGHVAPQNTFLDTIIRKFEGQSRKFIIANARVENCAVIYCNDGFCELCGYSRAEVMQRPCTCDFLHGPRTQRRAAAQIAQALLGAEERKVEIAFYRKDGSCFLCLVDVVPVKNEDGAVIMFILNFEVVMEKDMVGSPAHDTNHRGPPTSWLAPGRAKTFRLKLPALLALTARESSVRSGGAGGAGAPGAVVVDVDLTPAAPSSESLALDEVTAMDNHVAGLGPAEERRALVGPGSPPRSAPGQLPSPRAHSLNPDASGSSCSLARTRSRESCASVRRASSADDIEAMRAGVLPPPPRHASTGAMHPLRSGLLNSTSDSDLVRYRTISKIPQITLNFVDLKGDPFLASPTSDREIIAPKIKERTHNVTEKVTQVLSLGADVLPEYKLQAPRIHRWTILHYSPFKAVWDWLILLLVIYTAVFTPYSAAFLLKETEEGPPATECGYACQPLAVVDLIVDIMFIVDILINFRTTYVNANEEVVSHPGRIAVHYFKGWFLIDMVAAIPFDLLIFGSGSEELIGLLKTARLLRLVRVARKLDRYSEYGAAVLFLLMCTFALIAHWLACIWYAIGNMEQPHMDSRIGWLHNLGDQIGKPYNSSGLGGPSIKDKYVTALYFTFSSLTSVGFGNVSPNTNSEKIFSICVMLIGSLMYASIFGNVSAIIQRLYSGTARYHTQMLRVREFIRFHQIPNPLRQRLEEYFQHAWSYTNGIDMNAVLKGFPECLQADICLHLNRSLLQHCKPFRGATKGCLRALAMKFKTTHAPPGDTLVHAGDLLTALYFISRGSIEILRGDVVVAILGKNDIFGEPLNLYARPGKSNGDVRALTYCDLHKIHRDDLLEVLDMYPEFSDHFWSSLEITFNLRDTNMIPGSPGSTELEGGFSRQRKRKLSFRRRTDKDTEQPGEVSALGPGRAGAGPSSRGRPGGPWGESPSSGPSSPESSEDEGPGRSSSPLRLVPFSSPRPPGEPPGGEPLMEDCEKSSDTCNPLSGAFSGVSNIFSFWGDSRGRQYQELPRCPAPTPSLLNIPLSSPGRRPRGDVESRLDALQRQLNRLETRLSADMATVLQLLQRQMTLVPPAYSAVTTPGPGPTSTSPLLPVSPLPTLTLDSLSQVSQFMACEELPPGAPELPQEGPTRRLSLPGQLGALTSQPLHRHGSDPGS

Chain of RAC-alpha serine/threonine-protein kinase (P31749 whole entry, the tested form may be a part): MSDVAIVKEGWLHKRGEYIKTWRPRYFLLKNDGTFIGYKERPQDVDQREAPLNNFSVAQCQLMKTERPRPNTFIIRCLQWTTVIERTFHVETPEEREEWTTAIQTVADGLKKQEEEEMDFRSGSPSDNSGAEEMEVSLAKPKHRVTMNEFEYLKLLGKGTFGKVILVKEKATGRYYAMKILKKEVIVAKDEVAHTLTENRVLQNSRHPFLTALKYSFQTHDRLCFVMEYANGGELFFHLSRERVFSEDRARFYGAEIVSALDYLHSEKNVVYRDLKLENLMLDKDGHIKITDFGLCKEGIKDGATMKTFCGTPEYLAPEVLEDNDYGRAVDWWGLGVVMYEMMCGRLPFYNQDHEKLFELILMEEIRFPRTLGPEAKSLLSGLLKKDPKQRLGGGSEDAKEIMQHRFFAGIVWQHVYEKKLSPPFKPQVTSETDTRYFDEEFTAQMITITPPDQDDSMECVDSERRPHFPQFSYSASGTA

Structure (SMILES) | IC50 [1] [µM] | IC50 (786-0) [µM] | IC50 (KHOS/NP) [µM] | IC50 (HGC-27) [µM] | inhibition at 3 µM (hERG (KCNH2)) [%]
Cn1nccc1-c1cc(F)c(C(=O)N[C@@H]2CNCC[C@H]2c2ccc(F)cc2)c(F)c1 | 0.107 | 25.5 | 29.1 | 7.27 | 
Cn1nccc1-c1cc(F)c(C(=O)N[C@@H]2CNCC[C@H]2c2ccc(F)c(F)c2)cc1F | 0.0092 | 5.05 | 18.4 | 1.45 | 27.2
Cn1nccc1-c1ccc(C(=O)N[C@@H]2CNCC[C@H]2c2cc(F)cc(F)c2)c(Cl)c1 | 0.015 | 3.79 | 11.8 | 1.24 | 
Cn1nccc1-c1ccc(C(=O)N[C@@H]2CNCC[C@H]2c2cc(F)cc(F)c2)c(F)c1 | 0.0046 | 2.22 | 17.1 | 0.51 | 6.4
CCn1nccc1-c1ccc(C(=O)N[C@@H]2CNCC[C@H]2c2ccc(F)c(F)c2)c(F)c1 | 0.176 | 5.2 | 5.46 | 3.57 | 

More lines, main results first:

IC50 [1] [µM] | IC50 (786-0) [µM] | Structure (SMILES) | IC50 (KHOS/NP) [µM] | IC50 (HGC-27) [µM] | inhibition at 3 µM (hERG (KCNH2)) [%]
0.0263 | 7.99 | Cn1nccc1-c1cc(F)c(C(=O)N[C@@H]2CNCC[C@H]2c2ccc(F)c(F)c2)c(F)c1 | 15.4 | 4.59 | 
0.137 | 3.21 | Cn1ncc(Br)c1-c1cc(F)c(C(=O)N[C@@H]2CNCC[C@H]2c2ccc(F)c(F)c2)c(Cl)c1 | 3.61 | 3.28 | 
0.142 | 3.17 | Cn1ncc(Cl)c1-c1cc(F)c(C(=O)N[C@@H]2CNCC[C@H]2c2ccc(F)c(F)c2)c(Cl)c1 | 3.67 | 3.06 | 
0.047 | 2.2 | Cn1nccc1-c1cc(F)c(C(=O)N[C@@H]2CNCC[C@H]2c2ccc(F)c(F)c2)c(Cl)c1 | 3.89 | 1.7 | 
0.0957 | 3.56 | Cn1ncc(Br)c1-c1cc(F)c(C(=O)N[C@@H]2CNCC[C@H]2c2ccc(F)c(F)c2)c(F)c1 | 5.01 | 2.9 | 
